Our source for the IC50 values is patent US9199981B2 (NOVARTIS AG, priority 2011, dated 2015).

Where only a bound is given, the exact number is not on record here.

The term IC50 denotes the concentration that gives 50% inhibition.

Chain of c-kit (P10721 26-976): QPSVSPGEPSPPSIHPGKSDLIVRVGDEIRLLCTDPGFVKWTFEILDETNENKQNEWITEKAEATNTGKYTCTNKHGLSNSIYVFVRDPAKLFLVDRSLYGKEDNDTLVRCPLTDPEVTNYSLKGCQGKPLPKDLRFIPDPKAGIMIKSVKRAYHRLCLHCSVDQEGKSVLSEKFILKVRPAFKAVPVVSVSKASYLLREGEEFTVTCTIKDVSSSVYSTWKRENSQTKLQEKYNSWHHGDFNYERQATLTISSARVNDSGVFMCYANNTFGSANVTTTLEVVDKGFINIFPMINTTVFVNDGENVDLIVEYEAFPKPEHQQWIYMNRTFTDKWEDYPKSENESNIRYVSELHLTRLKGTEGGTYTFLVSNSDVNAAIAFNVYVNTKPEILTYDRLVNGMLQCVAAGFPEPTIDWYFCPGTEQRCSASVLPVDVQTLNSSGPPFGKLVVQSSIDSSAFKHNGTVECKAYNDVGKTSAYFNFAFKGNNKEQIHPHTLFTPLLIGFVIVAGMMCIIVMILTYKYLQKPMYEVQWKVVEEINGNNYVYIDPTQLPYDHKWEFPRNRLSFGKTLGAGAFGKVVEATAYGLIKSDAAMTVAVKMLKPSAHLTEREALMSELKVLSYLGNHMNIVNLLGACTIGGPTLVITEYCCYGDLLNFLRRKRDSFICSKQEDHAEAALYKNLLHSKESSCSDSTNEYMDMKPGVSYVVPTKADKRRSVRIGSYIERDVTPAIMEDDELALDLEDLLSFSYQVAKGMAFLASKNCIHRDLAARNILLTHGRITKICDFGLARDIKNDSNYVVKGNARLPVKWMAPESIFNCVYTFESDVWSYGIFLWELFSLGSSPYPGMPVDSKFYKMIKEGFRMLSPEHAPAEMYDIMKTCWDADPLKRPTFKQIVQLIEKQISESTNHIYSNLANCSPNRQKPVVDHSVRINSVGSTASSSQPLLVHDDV

One experiment deals with c-kit (Homo sapiens (Human), UniProt P10721). Put plainly: Mo7e cell proliferation assay (SCF dependent proliferation). The experiment is classed as cell-based. The conditions noted are these: Mo7e cells stimulated with human recombinant SCF, 48 hours, 1% FBS. How it is done:
Compounds of Formula (I) and Formula (II) provided herein were assayed to measure their capacity to inhibit c-kit and PDGFR kinases using the appropriate assay described below: c-Kit inhibition was evaluated using the Mo7e cell proliferation assay, and PDGFR inhibition was evaluated using the Rat A10 cell proliferation assay and the Human TG/HA-VSMC cell proliferation assay.
Mo7e Cell Proliferation Assay
The compounds of Table 1 and Table 2 were tested for inhibition of SCF dependent proliferation using human Mo7e cells which endogenously express c-kit in a 384 well format. […] After 48 hours of incubation at 37° C., cell viability was measured by adding 25 uL of CellTiter Glo (Promega) to the cells and the luminescence was measured by a CLIPR CCD camera (Molecular Devices).
The IC50 value is given as that concentration of the test compound in question that provoke a response halfway between the baseline and maximum responses.
With `Cc1ccc(-c2noc([C@H]3C[C@@](C)(O)C3)n2)cc1NC(=O)c1cnc2ccccn12` [F6, N-(5-(5-((1s,3s)-3-hydroxy-3-methylcyclobutyl)-1,2,4-oxadiazol-3-yl)-2-methylphenyl)imidazo[1,2-a]pyridine-3-carboxamide], the IC50 turned out to be 119 nM.

Consider `COC1(C(F)(F)F)CC(c2nc(-c3ccc(C)c(N(C)C(=O)c4cnc5ccccn45)c3)no2)C1` (centres unmarked) [F135], for which the IC50 came out at 999 nM.

With `Cc1ccc(-c2noc(C3CC(F)(F)C3)n2)cc1NC(=O)c1cnc2ccc(CN3CCOC3=O)cn12` [F154], the IC50 came to 365 nM.

Regarding `Cc1ccc(-c2noc(C3CC(F)(F)C3)n2)cc1NC(=O)c1cnc2ccc(-c3cnn(CC(C)(C)O)c3)cn12` [F44], the 50% inhibitory concentration (IC50) came to 6 nM.

For the compound `Cc1ccc(-c2noc(C3CC(F)(F)C3)n2)cc1NC(=O)c1cnc2ccc(COCCO)cn12` [F38], the IC50 came to 25 nM.

With `Cc1ccc(-c2noc(C3CC(=NO)C3)n2)cc1NC(=O)c1cnc2ccccn12` (centres unmarked) [F4], the IC50 came out at 22 nM.

With `COC(=O)NC1(c2nc(-c3ccc(C)c(NC(=O)c4cnc5ccccn45)c3)no2)CC(F)(F)C1` [F175, methyl (3,3-difluoro-1-(3-(3-(imidazo[1,2-a]pyridine-3-carboxamido)-4-methylphenyl)-1,2,4-oxadiazol-5-yl)cyclobutyl)carbamate], the IC50 is 73 nM.

As for `O=C(Nc1cc(-c2noc(C3CCC3)n2)ccc1F)c1cnc2ccccn12` [F152], the IC50 was 151 nM.

On to `[2H]C([2H])([2H])c1ccn2c(C(=O)Nc3cc(-c4noc(C5CC(F)(F)C5)n4)ccc3C)cnc2c1` [F80], for which the concentration for half-maximal inhibition (IC50) was found to be 19 nM.

For the compound `Cc1ccc(-c2noc(C3CC(=NOCC4CC4)C3)n2)cc1NC(=O)c1cnc2ccccn12` (centres unmarked) [F15], the IC50 was 35 nM.

As to `Cn1cc(-c2ccc3ncc(C(=O)Nc4cc(-c5noc(C6CC(F)(F)C6)n5)ccc4F)n3c2)cn1` [F47], the IC50 came to 33 nM.

`Cc1ccc2ncc(C(=O)Nc3cc(-c4noc(C5CC(F)C5)n4)ccc3C)n2c1` (centres unmarked) [F112]: the IC50 was found to be 56 nM.

Turning to `Cc1ccc(-c2noc(C3CC(F)(F)C3)n2)cc1NC(=O)c1cnc2ccc(CCC(=O)OC(C)(C)C)cn12` [F143], the IC50 turned out to be 237 nM.

In the case of `Cc1ccc(-c2noc(C3CC4(C3)OCCO4)n2)cc1NC(=O)c1cnc2ccccn12` [F8, N-(5-(5-(5,8-dioxaspiro[3.4]octan-2-yl)-1,2,4-oxadiazol-3-yl)-2-methylphenyl)imidazo[1,2-a]pyridine-3-carboxamide], the IC50 came to 55 nM.

As to `Cc1ccc(-c2noc(C3(F)CCC3)n2)cc1NC(=O)c1cnc2ccccn12` [F166], the IC50 was 111 nM.

Take `Cc1ccc(-c2noc(C3CC3(F)F)n2)cc1NC(=O)c1cnc2ccccn12` (centres unmarked) [F64, N-(5-(5-(2,2-difluorocyclopropyl)-1,2,4-oxadiazol-3-yl)-2-methylphenyl)imidazo[1,2-a]pyridine-3-carboxamide]: the IC50 was found to be 52 nM.

In the case of `CC(C)(O)Cn1cc(-c2ccc3ncc(C(=O)Nc4cc(-c5noc(C6CC(F)(F)C6)n5)ccc4F)n3c2)cn1` [F48], the IC50 was found to be 16 nM.

Take `Cc1ccc(-c2noc(C3CC(F)(F)C3)n2)cc1NC(=O)c1cnc2cc(-c3c[nH]nn3)ccn12` [F65, N-(5-(5-(3,3-difluorocyclobutyl)-1,2,4-oxadiazol-3-yl)-2-methylphenyl)-7-(1H-1,2,3-triazol-4-yl)imidazo[1,2-a]pyridine-3-carboxamide]: the IC50 amounted to 13 nM.

In the case of `COCc1n[nH]c(-c2ccc3ncc(C(=O)Nc4cc(-c5noc(C6CC(F)(F)C6)n5)ccc4C)n3c2)n1` [F84], the 50% inhibitory concentration (IC50) worked out at 22 nM.

Regarding `Cc1cn(-c2ccc3ncc(C(=O)Nc4cc(-c5noc(C6CC(F)(F)C6)n5)ccc4C)n3c2)cn1` [F95], the IC50 amounted to 77 nM.

With `Cc1ccc(-c2nc(C3CC(F)(F)C3)no2)cc1NC(=O)c1cnc2ccccn12` [F1], the IC50 came out at 24 nM.

`Cc1ccn2c(C(=O)Nc3cc(-c4noc(C5CC5(F)F)n4)ccc3C)cnc2c1` (centres unmarked) [F165]: the IC50 came out at 107 nM.

On to `Cc1ccc(-c2noc(C3(CO)CC3)n2)cc1NC(=O)c1cnc2ccccn12` [F139], for which the IC50 is 137 nM.

For `Cc1ccn2c(C(=O)Nc3cc(-c4noc(C5CC(F)C5)n4)ccc3C)cnc2c1` (centres unmarked) [F111], the half-maximal inhibitory concentration (IC50) came out at 46 nM.

Regarding `Cc1ccc(-c2noc(C3CC(F)(F)C3)n2)cc1NC(=O)c1cnc2ccc(-c3cnn(CCO)c3)cn12` [F41], the IC50 is 11 nM.

With `COCc1ccc2ncc(C(=O)Nc3cc(-c4noc(C5CC(F)(F)C5)n4)ccc3C)n2c1` [F39], the 50% inhibitory concentration (IC50) was 37 nM.

For `Cc1ccc(-c2noc(C3CC(F)(F)C3)n2)cc1NC(=O)c1cnc2ccc(-c3cn[nH]c3)cn12` [F40, N-(5-(5-(3,3-difluorocyclobutyl)-1,2,4-oxadiazol-3-yl)-2-methylphenyl)-6-(1H-pyrazol-4-yl)imidazo[1,2-a]pyridine-3-carboxamide], the 50% inhibitory concentration (IC50) is 9 nM.

`Cc1ccc(-c2noc(C3CC(n4cccn4)C3)n2)cc1NC(=O)c1cnc2ccccn12` (centres unmarked) [F45, N-(5-(5-(3-(1H-pyrazol-1-yl)cyclobutyl)-1,2,4-oxadiazol-3-yl)-2-methylphenyl)imidazo[1,2-a]pyridine-3-carboxamide]: the IC50 was determined as 71 nM.

With `Cc1ccc(-c2noc(C3CC(F)(F)C3)n2)cc1NC(=O)c1cnc2ccc(-c3cnn(CC(=O)O)c3)cn12` [F147], the IC50 was determined as 351 nM.

`CO/N=C1/CCC(c2nc(-c3ccc(C)c(NC(=O)c4cnc5ccccn45)c3)no2)C1` (centres unmarked) [F117]: the IC50 was 203 nM.

Regarding `Cc1ccc(-c2noc(C3CCCC3)n2)cc1NC(=O)c1cnc2ccccn12` [F74], the IC50 was 33 nM.

As for `Cc1ccc(-c2noc(COC3CC(F)(F)C3(F)F)n2)cc1NC(=O)c1cnc2ccccn12` (centres unmarked) [F35], the IC50 was 3 nM.

Consider `[2H]c1c([2H])c([2H])n2c(C(=O)Nc3cc(-c4noc(C5CC(F)(F)C5)n4)ccc3C)cnc2c1[2H]` [F92], for which the IC50 was determined as 35 nM.

As for `Cc1ccc(-c2noc(C3(NC(=O)OC(C)(C)C)CCC3)n2)cc1NC(=O)c1cnc2ccccn12` [F136], the IC50 worked out at 171 nM.

As to `Cc1ccc(-c2noc(CCC3(O)CC3)n2)cc1NC(=O)c1cnc2ccccn12` [F55a, N-(5-(5-(2-(1-hydroxycyclopropyl)ethyl)-1,2,4-oxadiazol-3-yl)-2-methylphenyl)imidazo[1,2-a]pyridine-3-carboxamide], the IC50 was 92 nM.

On to `C=C1CC(c2nc(-c3ccc(C)c(NC(=O)c4cnc5ccccn45)c3)no2)C1` [F30], for which the IC50 is 16 nM.

Turning to `Cc1ccc(-c2noc([C@H]3C[C@H](N)C3)n2)cc1NC(=O)c1cnc2ccccn12` [F17], the IC50 was found to be 109 nM.

Consider `COC(=O)NC1(c2nc(-c3ccc(C)c(NC(=O)c4cnc5ccccn45)c3)no2)CCC1` [F27], for which the IC50 came to 69 nM.

With `Cc1ccc(-c2noc(C3CC(F)(F)C3)n2)cc1NC(=O)c1cnc2ccc(-c3nnn[nH]3)cn12` [F173], the IC50 is greater than 10000 nM.

On to `Cc1ccc(-c2noc([C@H]3C[C@@H](OCC(C)(C)O)C3)n2)cc1NC(=O)c1cnc2ccc(F)cn12` [F172], for which the IC50 is greater than 10000 nM.

With `Cc1ccc(-c2noc(C3CC(C)(C)C3)n2)cc1NC(=O)c1cnc2ccccn12` [F58], the IC50 was 20 nM.

Take `COCCN[C@H]1C[C@@H](c2nc(-c3ccc(C)c(NC(=O)c4cnc5ccccn45)c3)no2)C1` [F133]: the concentration for half-maximal inhibition (IC50) amounted to 451 nM.

On to `Cc1ccc(-c2noc(C3CC3O)n2)cc1NC(=O)c1cnc2ccccn12` (centres unmarked) [F159], for which the IC50 came out at 218 nM.

On to `Cc1ccc(-c2noc(C3(N(C)C)CC3)n2)cc1NC(=O)c1cnc2ccccn12` [F29, N-(5-(5-(1-(dimethylamino)cyclopropyl)-1,2,4-oxadiazol-3-yl)-2-methylphenyl)imidazo[1,2-a]pyridine-3-carboxamide], for which the IC50 stood at 58 nM.

As to `Cc1ccc(-c2noc(C3CC(F)(F)C3)n2)cc1NC(=O)c1cnc2cc(-c3cn(CCO)nn3)ccn12` [F66, N-(5-(5-(3,3-difluorocyclobutyl)-1,2,4-oxadiazol-3-yl)-2-methylphenyl)-7-(1-(2-hydroxyethyl)-1H-1,2,3-triazol-4-yl)imidazo[1,2-a]pyridine-3-carboxamide], the IC50 was determined as 16 nM.

With `COCC1(c2nc(-c3ccc(C)c(NC(=O)c4cnc5ccccn45)c3)no2)CC1` [F20], the IC50 turned out to be 49 nM.

`O=C(Nc1cc(-c2noc(C3CC(F)(F)C3)n2)ccc1F)c1cnc2ccc(-c3cnn(CCN4CCOCC4)c3)cn12` [F51]: the IC50 was determined as 85 nM.

Consider `Cc1ccc(C(=O)NC2CC(F)(F)C2)cc1NC(=O)c1cnc2ccccn12` [F93], for which the IC50 was 24 nM.

Take `Cc1ccc(-c2noc([C@H]3C[C@@H](N4CCN(C)CC4)C3)n2)cc1NC(=O)c1cnc2ccccn12` [F125]: the IC50 is 393 nM.

On to `Cc1ccc2ncc(C(=O)Nc3cc(-c4noc(COC5CC(F)(F)C5(F)F)n4)ccc3C)n2c1` (centres unmarked) [F103], for which the IC50 was determined as 16 nM.

`COC(=O)NC1CC(c2nc(-c3ccc(C)c(NC(=O)c4cnc5ccccn45)c3)no2)C1` (centres unmarked) [F142]: the half-maximal inhibitory concentration (IC50) came out at 148 nM.

Turning to `Cc1ccc(-c2noc([C@H]3C[C@@H](O)C3)n2)cc1NC(=O)c1cnc2ccc(F)cn12` [F151], the IC50 was found to be 181 nM.

Consider `Cc1ccc(-c2noc(C3CC(O)(C(F)(F)F)C3)n2)cc1NC(=O)c1cnc2cc(F)ccn12` (centres unmarked) [F94], for which the IC50 is 56 nM.

The same experiment, now with this note: Mo7e cells stimulated with human recombinant SCF, 48 hours, 20% FBS (values marked *).
For `Cc1ccc(-c2noc(C3CC(C)(O)C3)n2)cc1NC(=O)c1cnc2ccccn12` (centres unmarked) [F3], the half-inhibitory concentration (IC50) came out at 164 nM.

Take `Cc1ccc(-c2nc(C3CC3)no2)cc1NC(=O)c1cnc2ccccn12` [F114]: the IC50 worked out at 322 nM.

On to `Cc1ccc(-c2noc(C3CCC(=O)C3)n2)cc1NC(=O)c1cnc2ccccn12` (centres unmarked) [F2], for which the IC50 turned out to be 58 nM.
